Laboratory results as given in PubChem BioAssay AID248 (DTP/NCI, 2004).
Where “and” joins values, the source holds several entries; their conditions need not be identical. Equal entries are not always repeated. Toxic doses and inconclusive results are not listed.

System: L1210 leukemia ip in BDF1 mice, survival T/C
Assay: NCI In Vivo Anticancer Drug Screen. Data for tumor model L1210 Leukemia (intraperitoneal) in B6D2F1 (BDF1) mice
Settings: endpoint: mean survival time, higher = longer survival
In short: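 Transplantable tumor model; survival measured in treated vs vehicle control mice. Value = treated/control.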

[1] = dose: 100.0 mg/kg/injection, schedule: Q04DX003 (ip), vehicle: Klucel (hydroxypropylcellulose) (HPC)
[2] = dose: 200.0 mg/kg/injection, schedule: Q04DX003 (ip), vehicle: Klucel (hydroxypropylcellulose) (HPC)
[3] = dose: 100.0 mg/kg/injection, schedule: Q01DX009 (ip), vehicle: Klucel (hydroxypropylcellulose) (HPC)
[4] = dose: 50.0 mg/kg/injection, schedule: Q04DX003 (ip), vehicle: saline with Tween-80
[5] = dose: 100.0 mg/kg/injection, schedule: Q04DX003 (ip), vehicle: saline with Tween-80
[6] = dose: 200.0 mg/kg/injection, schedule: Q04DX003 (ip), vehicle: saline with Tween-80
[7] = dose: 100.0 mg/kg/injection, schedule: Q04DX003 (ip), vehicle: saline
[8] = dose: 200.0 mg/kg/injection, schedule: Q04DX003 (ip), vehicle: saline
[9] = dose: 400.0 mg/kg/injection, schedule: Q04DX003 (ip), vehicle: saline
[10] = dose: 100.0 mg/kg/injection, schedule: Q01DX001 (ip), vehicle: saline
[11] = dose: 100.0 mg/kg/injection, schedule: Q01DX009 (ip), vehicle: saline with Tween-80
[12] = dose: 200.0 mg/kg/injection, schedule: Q01DX001 (ip), vehicle: saline
[13] = dose: 200.0 mg/kg/injection, schedule: Q01DX009 (ip), vehicle: saline with Tween-80
[14] = dose: 400.0 mg/kg/injection, schedule: Q01DX001 (ip), vehicle: saline
[15] = dose: 400.0 mg/kg/injection, schedule: Q01DX009 (ip), vehicle: saline with Tween-80
[16] = dose: 400.0 mg/kg/injection, schedule: Q04DX003 (ip), vehicle: saline with Tween-80

Question: `O=NN(CCCl)C(=O)N[C@@H]1CCCC[C@H]1O` was tested. Which T/C (dose: 1.6 mg/kg/injection, schedule: Q01DX001 (ip), vehicle: saline with Tween-80) did it give?
Answer: 106 % of control

Question: And the T/C (dose: 2.4 mg/kg/injection, schedule: Q01DX001 (ip), vehicle: saline with Tween-80)?
Answer: 116 % of control

Question: And the T/C (dose: 5.4 mg/kg/injection, schedule: Q01DX001 (ip), vehicle: saline with Tween-80)?
Answer: 183 % of control

Question: And the T/C (dose: 6.0 mg/kg/injection, schedule: Q01DX001 (ip), vehicle: saline with Tween-80)?
Answer: 302 % of control

Question: And the T/C (dose: 8.0 mg/kg/injection, schedule: Q01DX001 (ip), vehicle: saline with Tween-80)?
Answer: 441 % of control

Question: What about the T/C (dose: 9.0 mg/kg/injection, schedule: Q01DX001 (ip), vehicle: saline with Tween-80) of the same compound?
Answer: 492 % of control

Question: And the T/C (dose: 12.0 mg/kg/injection, schedule: Q01DX001 (ip), vehicle: saline with Tween-80)?
Answer: 441 % of control and 468 % of control

Question: What about the T/C (dose: 13.0 mg/kg/injection, schedule: Q01DX001 (ip), vehicle: saline with Tween-80) of the same compound?
Answer: 505 % of control

Question: What about the T/C (dose: 18.0 mg/kg/injection, schedule: Q01DX001 (ip), vehicle: saline with Tween-80) of the same compound?
Answer: 441 % of control

Question: And the T/C (dose: 20.0 mg/kg/injection, schedule: Q01DX001 (ip), vehicle: saline with Tween-80)?
Answer: 505 % of control

Question: What about the T/C (dose: 26.0 mg/kg/injection, schedule: Q01DX001 (ip), vehicle: saline with Tween-80) of the same compound?
Answer: 166 % of control

Question: And the T/C (dose: 30.0 mg/kg/injection, schedule: Q01DX001 (ip), vehicle: saline with Tween-80)?
Answer: 195 % of control

Question: With `COC(=O)CCC(NC(=O)OCc1ccccc1)C(=O)O` (configuration not stated) as the compound, how does the T/C [1] read?
Answer: 99 % of control

Question: What about the T/C [2] of the same compound?
Answer: 112 % of control

Question: With `CCOC(=O)C(C)(Cc1c(C)cc(C)c(CC(C)(C(=O)OCC)C(=O)OCC)c1C)C(=O)OCC` as the compound, how does the T/C (dose: 25.0 mg/kg/injection, schedule: Q01DX009 (ip), vehicle: Klucel (hydroxypropylcellulose) (HPC)) read?
Answer: 95 % of control

Question: What about the T/C (dose: 25.0 mg/kg/injection, schedule: Q04DX003 (ip), vehicle: Klucel (hydroxypropylcellulose) (HPC)) of the same compound?
Answer: 98 % of control

Question: What about the T/C (dose: 50.0 mg/kg/injection, schedule: Q01DX009 (ip), vehicle: Klucel (hydroxypropylcellulose) (HPC)) of the same compound?
Answer: 91 % of control

Question: And the T/C (dose: 50.0 mg/kg/injection, schedule: Q04DX003 (ip), vehicle: Klucel (hydroxypropylcellulose) (HPC))?
Answer: 96 % of control

Question: What about the T/C [3] of the same compound?
Answer: 96 % of control

Question: What about the T/C [1] of the same compound?
Answer: 100 % of control

Question: Which T/C (dose: 12.5 mg/kg/injection, schedule: Q01DX005 (ip), vehicle: water) does the source give for `NC(=S)N/N=C/c1ccc([N+](=O)[O-])s1` here?
Answer: 102 % of control

Question: And the T/C (dose: 25.0 mg/kg/injection, schedule: Q01DX005 (ip), vehicle: water)?
Answer: 98 % of control

Question: And the T/C (dose: 50.0 mg/kg/injection, schedule: Q01DX005 (ip), vehicle: water)?
Answer: 93 % of control

Question: And the T/C [4]?
Answer: 103 % of control

Question: And the T/C (dose: 100.0 mg/kg/injection, schedule: Q01DX005 (ip), vehicle: water)?
Answer: 100 % of control

Question: What about the T/C [5] of the same compound?
Answer: 104 % of control

Question: What about the T/C (dose: 100.0 mg/kg/injection, schedule: Q04DX003 (ip), vehicle: water) of the same compound?
Answer: 88 % of control

Question: And the T/C (dose: 200.0 mg/kg/injection, schedule: Q01DX005 (ip), vehicle: water)?
Answer: 94 % of control

Question: What about the T/C [6] of the same compound?
Answer: 100 % of control

Question: What about the T/C (dose: 200.0 mg/kg/injection, schedule: Q04DX003 (ip), vehicle: water) of the same compound?
Answer: 91 % of control

Question: Which T/C (dose: 100.0 mg/kg/injection, schedule: Q01DX001 (ip), vehicle: Klucel (hydroxypropylcellulose) (HPC)) does the source give for `CC(C)=Cc1cc(C)ccc1OC(=O)c1ccc([N+](=O)[O-])cc1` here?
Answer: 102 % of control

Question: What about the T/C [3] of the same compound?
Answer: 97 % of control

Question: What about the T/C (dose: 200.0 mg/kg/injection, schedule: Q01DX001 (ip), vehicle: Klucel (hydroxypropylcellulose) (HPC)) of the same compound?
Answer: 91 % of control

Question: And the T/C (dose: 200.0 mg/kg/injection, schedule: Q01DX009 (ip), vehicle: Klucel (hydroxypropylcellulose) (HPC))?
Answer: 101 % of control

Question: What about the T/C (dose: 400.0 mg/kg/injection, schedule: Q01DX001 (ip), vehicle: Klucel (hydroxypropylcellulose) (HPC)) of the same compound?
Answer: 103 % of control

Question: And the T/C (dose: 400.0 mg/kg/injection, schedule: Q01DX009 (ip), vehicle: Klucel (hydroxypropylcellulose) (HPC))?
Answer: 104 % of control

Question: Which T/C (dose: 200.0 mg/kg/injection, schedule: Q04DX002 (ip), vehicle: Klucel (hydroxypropylcellulose) (HPC)) does the source give for `Cc1nc(N)[nH]c(=O)c1CCCNS(=O)(=O)c1ccc(C(=O)O)cc1` here?
Answer: 88 % of control

Question: What about the T/C (dose: 400.0 mg/kg/injection, schedule: Q04DX002 (ip), vehicle: Klucel (hydroxypropylcellulose) (HPC)) of the same compound?
Answer: 112 % of control

Question: `C[N+](C)(C)CCOC(=O)C1C2CC3OC(=O)C1C3C2` (configuration not stated) was tested. Which T/C [7] did it give?
Answer: 98 % of control

Question: What about the T/C [8] of the same compound?
Answer: 102 % of control

Question: And the T/C [9]?
Answer: 96 % of control

Question: Which results are given for `CCCCCCCCCCCCCCCc1cc(=O)n(C)n1C`?
Answer: T/C [5]: 93 % of control; T/C [6]: 94 % of control

Question: For `CC(C)CP(=S)(CC(C)C)CC(C)C`, which T/C (dose: 100.0 mg/kg/injection, schedule: Q01DX001 (ip), vehicle: saline with Tween-80) is on record?
Answer: 103 % of control

Question: And the T/C (dose: 200.0 mg/kg/injection, schedule: Q01DX001 (ip), vehicle: saline with Tween-80)?
Answer: 103 % of control

Question: And the T/C (dose: 400.0 mg/kg/injection, schedule: Q01DX001 (ip), vehicle: saline with Tween-80)?
Answer: 89 % of control

Question: With `O=C(NC1CCCC2C(NC(=O)c3ccccc3)CCCC12)c1ccccc1` (configuration not stated) as the compound, how does the T/C [10] read?
Answer: 91 % of control

Question: What about the T/C [11] of the same compound?
Answer: 89 % of control

Question: What about the T/C [7] of the same compound?
Answer: 92 % of control

Question: What about the T/C [12] of the same compound?
Answer: 91 % of control

Question: And the T/C [13]?
Answer: 89 % of control

Question: What about the T/C [8] of the same compound?
Answer: 91 % of control

Question: What about the T/C [14] of the same compound?
Answer: 94 % of control

Question: What about the T/C [15] of the same compound?
Answer: 95 % of control

Question: And the T/C [9]?
Answer: 86 % of control

Question: What does the source list for `COC(=O)C(=C(c1ccccc1)c1ccccc1)c1ccccc1C(=O)O`?
Answer: T/C [11]: 90 % of control; T/C [5]: 101 % of control; T/C [13]: 88 % of control; T/C [6]: 93 % of control; T/C [15]: 96 % of control; T/C [16]: 92 % of control

Question: `O=C(OCCOCCOCCOCCOCCOCCOCCOCCOCCOCCOCCOCCOCCOCCOCCOCCOCCOCCOCCOCCOCCOCCOC(=O)N1CC1)N1CC1` was tested. Which T/C (dose: 100.0 mg/kg/injection, schedule: Q01DX001 (ip), vehicle: acetone) did it give?
Answer: 94 % of control

Question: And the T/C (dose: 100.0 mg/kg/injection, schedule: Q01DX009 (ip), vehicle: acetone)?
Answer: 98 % of control

Question: And the T/C [7]?
Answer: 100 % of control

Question: What about the T/C (dose: 200.0 mg/kg/injection, schedule: Q01DX001 (ip), vehicle: acetone) of the same compound?
Answer: 94 % of control

Question: What about the T/C (dose: 200.0 mg/kg/injection, schedule: Q01DX009 (ip), vehicle: acetone) of the same compound?
Answer: 95 % of control

Question: What about the T/C [8] of the same compound?
Answer: 103 % of control

Question: And the T/C (dose: 400.0 mg/kg/injection, schedule: Q01DX001 (ip), vehicle: acetone)?
Answer: 97 % of control

Question: And the T/C [9]?
Answer: 108 % of control

Question: What does the source list for `CCCCOC(=O)c1ccc(NC(=O)Nc2ccccc2)cc1`?
Answer: T/C (dose: 25.0 mg/kg/injection, schedule: Q04DX003 (ip), vehicle: saline with Tween-80): 101 % of control; T/C [4]: 93 % of control; T/C [5]: 93 % of control and 97 % of control

Question: What does the source list for `O=C(NCCCN1CC1)C(=O)Nc1ccccn1`?
Answer: T/C [1]: 102 % of control; T/C [2]: 86 % of control

Question: What does the source list for `CCSCC1OC(n2cnc3c(N)ncnc32)CC1O` (configuration not stated)?
Answer: T/C [10]: 98 % of control; T/C [12]: 104 % of control; T/C [14]: 92 % of control

Question: How did the T/C [11] turn out when `CCCCCCCCCCCC(=O)Nc1ccc(NC(C)=O)cc1` was run?
Answer: 96 % of control and 104 % of control

Question: And the T/C (dose: 100.0 mg/kg/injection, schedule: Q04DX002 (ip), vehicle: saline with Tween-80)?
Answer: 93 % of control and 94 % of control

Question: What about the T/C [5] of the same compound?
Answer: 95 % of control

Question: What about the T/C [13] of the same compound?
Answer: 93 % of control and 96 % of control

Question: What about the T/C (dose: 200.0 mg/kg/injection, schedule: Q04DX002 (ip), vehicle: saline with Tween-80) of the same compound?
Answer: 111 % of control and 91 % of control

Question: And the T/C [6]?
Answer: 108 % of control

Question: What about the T/C [15] of the same compound?
Answer: 96 % of control

Question: And the T/C (dose: 400.0 mg/kg/injection, schedule: Q04DX002 (ip), vehicle: saline with Tween-80)?
Answer: 96 % of control and 102 % of control

Question: And the T/C [16]?
Answer: 95 % of control

Question: Which T/C (dose: 12.5 mg/kg/injection, schedule: Q01DX009 (ip), vehicle: carboxymethylcellulose (CMC)) does the source give for `C=C(C)C1Cc2c(ccc3c2OC2COc4cc(OC)c(OC)cc4C2(O)C3=O)O1` (configuration not stated) here?
Answer: 107 % of control
